Converted amounts (≈) assume the structure as drawn. Where a SMILES comes first, the peptide text is derived from it. The star is where a group is joined. βGlcNAc = CC(=O)N[C@@H]1[C@@H](O)[C@H](O)[C@@H](CO)O[C@H]1*; Stearoyl = CCCCCCCCCCCCCCCCCC(=O)*
Legend:
MTT assay, cytotoxicity = type: cell-based, human; conditions: human, HaCaT keratinocytes, 24 h incubation at 37 °C, 0.5–500 μg/mL, six replicates per concentration, repeated at least twice
Experimental: To evaluate the cytotoxicity of the test peptides (IC50), the classic MTT assay on 96-well plates was performed for human keratinocytes (HaCaT) which were acquired from the ATCC. The assay was based on colorimetric determination of the cell metabolic activity where the color intensity reflected the number of live cells that could be measured spectrophotometrically. The cell line was cultured in a Dulbecco’s modified Eagle Medium (Invitrogen) supplemented with 10% fetal bovine serum (v/v), 100 units/mL of penicillin, 100 μg/mL of streptomycin, and 2 mM L-glutamine and was kept at 37 °C in a humidified 5% CO2 incubator. Briefly, a day after plating of 500 cells per well, a series of concentrations (0.5–500 μg/mL) of the test compounds were applied. DMSO was added to the control cells at a final concentration of 1.0% (v/v), which was related to the maximum concentration of the solvent compounds used in the experiment. After 24 h of incubation at 37 °C (humidified 5% CO2 incubator) with the peptides, a medium containing 1 mg/mL of MTT was added to the wells up to a final concentration of 0.5 mg/mL. Subsequently, the plates were incubated at 37 °C for 4 h. Then, the medium was aspirated, and the formazan product was solubilized with DMSO. The background absorbance at 630 nm was subtracted from that at 570 nm for each well (Epoch, BioTek Instruments, Winooski, VT, USA). Six replicates were conducted for each concentration. All experiments were repeated at least twice and the resulting IC50 values were calculated with a GraFit 7 software (v. 7.0, Erithacus, Berkley, CA, USA).
The selectivity indexes were calculated for all the strains as IC50/MIC. According to IC50, in most cases, glycosylation caused only a slight decrease in toxicity. However, in contrast with SI calculated for HC50, the differences between USCLs and gUSCLs are not so distinct. […] Moreover, toxicity of USCLs and gUSCLs is high and exceeds their antimicrobial activity. The lipopetides were not selective against Gram-negative strains (K. pneumoniae, A. baumannii, P. aeruginosa, K. aerogenes) over human cells. A few USCLs were selective (SI > 1) against E. faecium and S. aureus with SI up to 1.87; and some gUSCLs were selective against E. faecium but not against S. aureus, with SI between 0.63 and 1.73. […] In this case, SI of gUSCLs was noticeably […] than that of corresponding parent USCLs (2.07, 1.99, 2.67 vs. 2.53, 2.36, 3.46, respectively). Selectivity indexes were plotted against adjusted retention time (Figures S15–S21). A moderate linear correlation was found in USCLs and K. pneumoniae, C. glabrata, and gUSCLs and K. pneumoniae, K. aerogenes (R^2 between 0.6064 and 0.6481). A relatively high linear correlation was obtained for USCLs and K. aerogenes (R^2 of 0.8214) and also for gUSCLs and C. glabrata (R^2 of 0.9223).

[1] = tested on: A. baumannii ATCC BAA 1605; type: cell-based, Acinetobacter baumannii; conditions: ATCC BAA 1605, 18 h
Experimental: (§1) The Acinetobacter baumannii ATCC BAA-1605, Enterococcus faecium ATCC 700221, Klebsiella aerogenes ATCC 13048, Klebsiella pneumoniae ATCC 700603, Pseudomonas aeruginosa ATCC 9027, Staphylococcus aureus ATCC 33591, Candida glabrata ATCC 15126, strains were acquired from the American Type Culture Collection (ATCC). All the strains were stored at −80 °C in Roti-Store cryo vials and were transferred into fresh Mueller–Hinton broth (MHB, Becton Dickinson, Warsaw, Poland) for bacteria or RPMI-1640 (Sigma-Aldrich, Steinheim, Germany) for fungi before the tests and incubated for 24 h at 37 °C. Then, the cultures were seeded on the Mueller–Hinton agar (BioMaxima, Lublin, Poland) or Sabouraud dextrose agar (SDA, BioMaxima, Lublin, Poland) plates, respectively, and incubated as just mentioned. These agar cultures were used for further microbiological assays. Cell densities for all assays were adjusted spectrophotometrically (Multiskan GO Microplate Spectrophotometer, Thermo Fisher Scientific, Vantaa, Finland) at 600 and 530 nm for bacteria and fungi, respectively.
(§2) The MICs were determined using a broth microdilution method according to the Clinical and Laboratory Standard Institute guidelines. For this purpose, initial inoculums of bacteria (5 × 10^5 CFU/mL) in MHB and yeasts (2 × 10^3 CFU/mL) in RPMI-1640 with 2% D-glucose were exposed to the ranging concentration of lipopeptides (1–512 μg/mL) and incubated at 37 °C for 18 h and 24 h, respectively. The experiments were conducted on 96-well microtiter polystyrene plates (Kartell, Italy). The growth was assessed visually after incubation and the MIC was assumed as the lowest peptide concentration at which a noticeable growth of microorganisms was inhibited. All experiments were conducted in triplicate.

E. faecium ATCC 700221 = type: cell-based, Enterococcus faecium; conditions: ATCC 700221, 18 h
Experimental: as §1, §2

K. aerogenes ATCC 13048 = type: cell-based, Klebsiella aerogenes; conditions: ATCC 13048, 18 h
Experimental: as §1, §2

C. glabrata ATCC 15126 = type: cell-based, Candida glabrata; conditions: ATCC 15126, 24 h
Experimental: as §1, §2

CCCCCCCCCCCCCCCCCC(=O)N[C@@H](CCCNC(=N)N)C(=O)N[C@@H](CCCNC(=N)N)C(=O)N[C@@H](CO[C@@H]1O[C@H](CO)[C@@H](O)[C@H](O)[C@H]1NC(C)=O)C(N)=O [Peptide 18, C18-RRS(GlcNAc)-NH2] (Stearoyl-Arg-Arg-Ser(βGlcNAc)-NH2)
IC50 at 24 h (MTT assay, cytotoxicity): 13.8 ± 1.71 µg/mL (≈ 15.6 µM) | MIC [1]: 32 µg/mL (≈ 36.1 µM) | MIC (E. faecium ATCC 700221): 8 µg/mL (≈ 9.03 µM) | MIC (K. aerogenes ATCC 13048): 32 µg/mL (≈ 36.1 µM) | MIC (C. glabrata ATCC 15126): 4 µg/mL (≈ 4.51 µM)
